Measured values reported in patent US6635648B2, “Combination therapy using sympathetic nervous system antagonists and endothelin antagonists” (Queen's University at Kingston, priority 2000, dated 2003).

Experiments:
[1] = NO-selectivity of depressor responses before and after maximal NOS blockade with L-NAME; type: in vivo, rat; conditions: for Change in Depressor Response: after vs before 100 mg/kg L-NAME; for Δ MAP L-NAME 100 mg/kg (mmHg): depressor agent after maximal NOS blockade with 100 mg/kg L-NAME; for Δ MAP Control (mmHg): depressor agent before L-NAME
Procedure: (§1) Determination of MAP: Three days after surgery, MAP was recorded (PowerLab/8s DAS, ADInstruments, Milford, Mass.). […] An equilibration period of at least 1 hour was allowed prior to any experimentation to establish a steady baseline. […] Mean arterial pressure (MAP) and heart rate (HR) were calculated as an average over five minutes for steady state conditions and 10 seconds for transient drug responses.
Hypersensitivity to NO-mimetics following NOS blockade is shown to be the result of a specific interaction between ET and depressor agents that target the NO pathway. To confirm the specificity of this interaction, dose responses to a variety of depressor agents targeting both NO-dependent and NO-independent pathways were performed before and after maximal NOS blockade with 100 mg/kg L-NAME. One dose of each depressor agent that decreased MAP by approximately 10 mmHg was chosen for analysis. The agents compared were SNP ([…]; 30 s infusion), 8-bromo-cGMP (8-Br-cGMP; 3000 mg/kg/min; cumulative from 30, 100, 300, 1000, 3000 dose response, 2 min infusion, 3 min between doses), bradykinin (30 mg/kg/min; 30 s infusion), PGE1 ([…]; cumulative dose response, 20 min/dose) and INE (0.2 mg/kg/min; 30 s infusion).

[2] = Mean arterial pressure (MAP) in conscious catheterised rats after drug treatment; type: in vivo, rat; conditions: for Δ MAP (from initial baseline; mmHg): Table 3, L-NAME 3 mg/kg in the triple combination; for MAP after terazosin treatment: terazosin 2 mg/kg i.v., SB209670 treated animals (label SB209670) vs animals without SB209670 (label terazosin)
Procedure: Animals: Male Sprague-Dawley rats (250-300 g) from Charles River Laboratories (St. Constant, Quebec) were individually housed under conditions of 12-hour light/dark cycle at a room temperature of 22-24° C. Purina® rodent chow and tap water were provided ad libitum. Rats were housed for at least one day prior to catheter implantation and allowed a minimum of 3 days to recover from the surgery before any experiments. […] Experiments were performed in accordance with standards established by the Canadian Council of Animal Care.
Surgery: The surgical technique was based on that described by Thompson et al. (Hypertension. 20(6):809-815, 1992). In brief, rats were anaesthetized with Hypnorm®/Nersed® (1:2:1 ratio of Hypnorm®:H2O:Versed® at a dose rate of 3 ml/kg i.p.). […] An additional catheter sat loosely in the abdominal cavity for intra-peritoneal administration of drugs. All catheters were tunneled subcutaneously, exteriorized at the nape of the neck and sutured into place. The catheters were filled with heparin saline (50 IU/ml) and sealed at the exposed end.
as §1
The NOS antagonist L-NAME was administered in increasing doses (1,3,10,30 mg/kg i.v.). MAP was measured after each dose when pressure reached steady state (10 min).

[3] = Vascular reactivity: depressor response to NO-mimetic sodium nitroprusside (SNP) infusion; type: in vivo, rat; conditions: for Change in Vascular Response to SNP: Table 3; for depressor response to SNP: treatment alone at maximal blockade (L-NAME 30 mg/kg), SNP 1-30 μg/kg/min i.v.; for depressor response to SNP in the presence of L-NAME: treatment combined with L-NAME 3 and 30 mg/kg
Procedure: as §1
(§2) Data Analysis: Dose responses to N^ω-nitro-L-arginine-methyl ester (L-NAME, Sigma, Mo.) in terazosin- or prazosin-treated animals vs control were compared using unpaired, two-tailed t-test for each dose. […] In all cases a p value less than 0.05 was considered to be statistically significant.
This set of experiments examined whether alpha-adrenoceptor antagonism and/or complete removal of α-signaling could also alter vascular reactivity to exogenous NO. […] Reactivity was then determined following minimal and maximal NOS blockade by administration of a low dose followed by a high dose of L-NAME (3 and 30 mg/kg L-NAME i.v., respectively). […] In these animals additional dose responses to each NO-donor were performed after initial alpha-adrenoceptor antagonism and before L-NAME treatment. Further assessment of the impact of removal of α1-adrenoceptor signaling was made through ganglionic blockade with hexamethonium (30 mg/kg i.v.). Down-stream sympathetic signaling is effectively abolished by completely blocking the ganglia with hexamethonium.

[4] = Vascular reactivity: depressor response to NO-mimetic glyceryl trinitrate (GTN) infusion; type: in vivo, rat
Procedure: as §1, §2
NOS blockade hypertension also results in a hypersensitivity to NO-mimetics such as SNP and GTN. This set of experiments examined whether alpha-adrenoceptor antagonism and/or complete removal of α-signaling could also alter vascular reactivity to exogenous NO. Dose response curves to 30 second infusions of the NO-mimetics sodium nitroprusside (1-30 μg/kg/min SNP i.v.) or glyceryl trinitrate (25-1600 μg/kg/min GTN i.v.) were generated in control animals to determine normal vasodilatory reactivity to exogenous NO. Reactivity was then determined following minimal and maximal NOS blockade by administration of a low dose followed by a high dose of L-NAME (3 and 30 mg/kg L-NAME i.v., respectively). […] In these animals additional dose responses to each NO-donor were performed after initial alpha-adrenoceptor antagonism and before L-NAME treatment. Further assessment of the impact of removal of α1-adrenoceptor signaling was made through ganglionic blockade with hexamethonium (30 mg/kg i.v.). Down-stream sympathetic signaling is effectively abolished by completely blocking the ganglia with hexamethonium. After establishment of a control dose response to SNP, maximal ganglionic blockade was induced and MAP was allowed to reach a steady state. The vascular reactivity to SNP was reassessed after hexamethonium alone and following both a low then high dose of L-NAME (3 and 30 mg/kg L-NAME i.v., respectively).

[5] = Overshoot and rate of recovery of MAP following 30 second SNP depressor challenge; type: in vivo, rat; conditions: for Overshoot (mmHg) of MAP relative to control response: following SNP (10 μg/kg/min) depressor challenge, maximal blockade, 3 mg/kg L-NAME in TRZ combinations; for Rate of Recovery (mmHg/s): following SNP (30 μg/kg/min) depressor challenge, 10 second interval after onset of recovery; for Overshoot: Change vs Control: following SNP (10 mg/kg/min) depressor challenge; for Rate of Recovery: Change vs Control: following SNP (30 mg/kg/min) depressor challenge
Procedure: as §1
In Examples 2, 3 and 4, we used a 30 second infusion of SNP to induce a transient depressor response (less than 1 minute) in order to assess mechanisms involved in homeostatic adjustment, in each case comparing treatment to the respective control response (FIG. 8, Table 3). […] In contrast, after α1-adrenoceptor antagonism the response to the depressor challenge was altered such that there was a marked overshoot of MAP above baseline during the recovery phase. In some instances MAP took in excess of five minutes to return to baseline following the overshoot. […] This response was unchanged by NOS antagonism (FIG. 8b) and RAS inhibition (FIG. 8c).
In addition, we characterized the rate of recovery of MAP as determined by the upward slope of the arterial blood pressure trace during a 10 second interval immediately after the onset of recovery (Table 4). […] In contrast, the combination of alpha-blockade and NOS antagonism doubled the magnitude of the recovery slope.

[6] = compared with the placebo group; cited from earlier work
[7] = treatment alone at maximal blockade (L-NAME 30 mg/kg), GTN 25-1600 μg/kg/min i.v.

Row | SMILES | Change in Depressor Response [1] | Δ MAP L-NAME 100 mg/kg (mmHg) [1] [mmHg] | Δ MAP Control (mmHg) [1] [mmHg] | Δ MAP (from initial baseline; mmHg) [2] [mmHg] | Change in Vascular Response to SNP [3] | depressor response to SNP [3] | Overshoot (mmHg) of MAP relative to control response [5] [mmHg] | Rate of Recovery (mmHg/s) [5] [mmHg/s] | Overshoot: Change vs Control [5] | Rate of Recovery: Change vs Control [5] | further results
1 | Nc1nc2c(nc(Br)n2[C@@H]2O[C@@H]3COP(=O)(O)O[C@H]3[C@H]2O)c(=O)[nH]1 [8-Br-cGMP, 8-bromo-cyclic-GMP] | ↑↑ | −26.57 ± 6.76 | −0.67 ± 2.83 |  |  |  |  |  |  |  | 
2 | C[N+](C)(C)CCCCCC[N+](C)(C)C [Hexamethonium, hexamethonium] |  |  |  | −18 ± 10.0 | ↑ | induced an almost identical pattern of hypersensitivity |  |  |  |  | depressor response to SNP in the presence of L-NAME [3]: further enhanced
3 | CC(C)NCC(O)c1ccc(O)c(O)c1 (stereo not drawn) [Isopropyl-norepinephrine (INE), Isopropyl-norepinephrine] | ←→ | −10.52 ± 4.04 | −9.42 ± 7.38 |  |  |  |  |  |  |  | 
4 | COC(=O)[C@@H](N)CCCNC(=N)N[N+](=O)[O-] [L-NAME, N^ω-nitro-L-arginine-methyl ester] |  |  |  | 36 ± 11.1 | ↑ | enhanced | −1.6 ± 3.68 | 1.2 ± 0.73 | ←→ | ←→ | vascular reactivity to GTN ([4]; moderate NOS blockade, 3 mg/kg L-NAME alone): did not produce a significant change; depressor response to GTN [4, 7]: enhanced
5 | CCCCC[C@H](O)/C=C/[C@H]1[C@H](O)CC(=O)[C@@H]1CCCCCCC(=O)O [PGE1] | ←→ | −15.51 ± 9.74 | −15.21 ± 5.72 |  |  |  |  |  |  |  | 
6 | CCCOc1ccc2c(c1)[C@@H](c1ccc(OC)cc1OCC(=O)O)[C@H](C(=O)O)[C@H]2c1ccc2c(c1)OCO2 [SB209670] |  |  |  |  |  |  | 0.5 ± 4.98 | 1.4 ± 1.00 | ←→ | ←→ | effect on MAP vs control ([2]; SB209670 alone): did not lower MAP significantly; MAP ([2]; SB209670 i.v. bolus then 100 μg/kg/min infusion, alone, control 98.29±6.43): 90.41±4.36 mmHg; MAP after terazosin treatment [2]: 51.83±4.02 mmHg; enhanced SNP response with terazosin combined with moderate NOS antagonism ([3]; terazosin 2 mg/kg + L-NAME 3 mg/kg + SB209670): prevented; dose response to SNP after terazosin treatment ([3]; terazosin 2 mg/kg i.v. in animals receiving SB209670): significantly blunted; overshoot of MAP in treatment groups demonstrating overshoot ([5]; co-administration with alpha-adrenoceptor antagonist with or without NOS antagonist): abolished
7 | COc1cc2nc(N3CCN(C(=O)C4CCCO4)CC3)nc(N)c2cc1OC (stereo not drawn) [Terazosin, terazosin] |  |  |  | −28 ± 18.5 | ↑ | enhanced | 45 ± 5.19 | 1.2 ± 0.42 | ↑ | ←→ | decrease in MAP ([2]; losartan + enalaprilat 30 mg/kg i.p. 1:1 vs terazosin alone): 28.09±18.49; MAP after terazosin treatment [2]: 77.37±17.48 mmHg; depressor response to SNP in the presence of L-NAME [3]: enhanced relative to control; depressor response to GTN ([4]; terazosin combined with moderate NOS blockade (3 mg/kg L-NAME)): significantly enhanced; depressor response to GTN [4, 7]: only statistically significant at the highest dose of GTN
8 | O=[N+]([O-])O[C@H]1CO[C@H]2[C@@H]1OC[C@H]2O[N+](=O)[O-] [isosorbide dinitrate] |  |  |  |  |  |  |  |  |  |  | mortality among patients with chronic congestive heart failure [6]: reduced significantly
9 | CCCCc1nc(Cl)c(CO)n1Cc1ccc(-c2ccccc2-c2nn[nH]n2)cc1 [losartan] |  |  |  |  |  | failed to increase the sensitivity |  |  |  |  | 
10 | COc1cc2nc(N3CCN(C(=O)c4ccco4)CC3)nc(N)c2cc1OC [prazosin] |  |  |  |  |  |  |  |  |  |  | lowering of MAP after alpha-adrenoceptor antagonist ([2]; prazosin 3 mg/kg i.v. or terazosin 2 mg/kg i.v., steady state, conscious rats): 36.35±13.96 mmHg; mortality among patients with chronic congestive heart failure [6]: the same
